We go through two compounds from patent US5441968A, “Therapeutically active fluoro substituted benzimidazoles” (priority 1993, dated 1995).

For one data set, the system named is gastric acid secretion. The data set is described as follows: Inhibition of gastric acid secretion in the conscious dog. It is filed as in vivo, dog (Harrier). The note with it: for Inhibition of acid secretion: id. Here is the method:
The potency for inhibition of acid secretion is measured in the male rat and the dog, both intravenously and intraduodenally. When it comes to relevance of the animal test data for potency of a given compound in man for the present type of compounds, it is believed that potency in man will correspond to a level somewhere between what is measured in the male rat and what is measured in the dog.
Inhibition of Gastric Acid Secretion and Bioavailability in the Conscious Dog
Harrier dogs of either sex were used. They were equipped with a duodenal fistula for the administration of test compounds or vehicle and a cannulated ventricular fistula for the collection of gastric secretions.
Before secretory tests the animals were fasted for about 18 h but water was freely allowed. Gastric acid secretion was stimulated by a 4 h infusion of histamine dihydrochloride (12 ml/h) at a dose producing about 80% of the individual maximal secretory response, and gastric juice collected in consecutive 30-min fractions. Test substance or vehicle was given id or iv 1 h after starting the histamine infusion, in a volume of 0.5 ml/kg body weight. The acidity of the gastric juice samples were determined by titration to pH 7.0, and the acid output calculated. The acid output in the collection periods after administration of test substance or vehicle were expressed as fractional responses, setting the acid output in the fraction preceding administration to 1.0. Percentage inhibition was calculated from fractional responses elicited by test compound and vehicle. ED50 values were obtained by graphical interpolation on log dose-response curves, or estimated from single-dose experiments under the assumption of the same slope of the dose-response curve for all test compounds. All results reported are based on acid output 2 h after dosing.

Data set [1] in a line: Chemical stability in aqueous buffer solution at different pH values. It is filed as physicochemical. The note with it: for Chemical stability at pH2 t 10%: pH 2, 37° C., time after which 10% has decomposed. Here is the method: The chemical stability of the compounds of the invention has been followed kinetically at low concentration at 37° C. in aqueous buffer solution at different pH values. The results in Table 3 show the half life (t 1/2) at pH 7, that is the time period after which half the amount of the original compound remains unchanged, and t10% at pH 2, that is the time period after which 10% of the original compound has decomposed.

`CCOC(=O)OCn1c([S+]([O-])Cc2cc(OC)ccn2)nc2c(F)cccc21` (stereo not drawn) [Example 2, 4-fluoro-2-[[(4-methoxy-2-pyridinyl)methyl]sulfinyl] -1H-benzimidazole-1-ylmethyl ethyl carbonate]: the median effective dose (ED50) (in general, the dose at which the effect has come halfway, by size or by number of responders) in the data set on gastric acid secretion (Canis lupus familiaris, dog, id administration, histamine-stimulated, acid output 2 h after dosing) amounted to 1.3 µmol/kg. In addition, the “Inhibition of acid secretion” value with gastric acid secretion (Dog 1, 1.5 μmol/kg) is 55%; in the data set with gastric acid secretion (Dog 2, 1.5 μmol/kg) it was “no effect”. In addition, in data set [1], the “Chemical stability at pH2 t 10%” value came out at 3 h. For the same compound, the half-life in data set [1] (pH 7, 37° C., read-out: Chemical stability at pH 7 t1/2 (converted)) was 16 h.

For the compound `COc1ccnc(C[S+]([O-])c2nc3c(F)cccc3n2COC(=O)OCc2ccccc2)c1` (stereo not drawn) [Example 1, 4-fluoro-2-[[(4-methoxy-2-pyridinyl)methyl]sulfinyl]-1H-benzimidazole-1-ylmethyl benzyl carbonate], the “Chemical stability at pH2 t 10%” value in data set [1] was 2 h.
